Experimental data reported in patent US6486191B2 (priority 1997, dated 2002).
≈ marks a conversion by molar mass, not a printed value.

Tests used:
[1] = tested on: larvae of the horseradish beetle (Phaedon cochleariae); assay: Phaedon larvae test; assay type: in vivo; conditions: cabbage leaves immersed, active substance concentration 0.1 % by weight
Procedure: (§1) Solvent: 7 parts by weight of dimethylformamide
(§2) Emulsifier: 1 part by weight of alkylaryl polyglycol ether
For the preparation of an expedient fonnulation of active substance, 1 part by weight of active substance is mixed with the stated amounts of solvent and emulsifier, and the concentrate is diluted to the desired concentration with water.
Cabbage leaves (Brassica oleracea) are treated by immersion in the formulation of active substance of the desired concentration and infested with larvae of the horseradish beetle (Phaedon cochleariae) as long as the leaves are still moist.
After the desired time, the kill in % is determined. 100% means that all beetle larvae were killed; 0% means that no beetle larvae were killed.

Penicillium brevicaule = assay: Material protection test (MIC on malt extract agar); assay type: cell-based; conditions: 336 h, two weeks at 27° C., 60 to 70% relative humidity, read-out: Minimum inhibitory concentration (MIC value)
Chaetomium globosum = assay: as above; assay type: cell-based; conditions: 336 h, two weeks at 27° C., 60 to 70% relative humidity, read-out: Minimum inhibitory concentration (MIC value)
Aspergillus niger = assay: as above; assay type: cell-based; conditions: 336 h, two weeks at 27° C., 60 to 70% relative humidity, read-out: Minimum inhibitory concentration (MIC value)
[2] = tested on: caterpillars of the diamondback moth (Plutella xylostella); assay: Plutella test; assay type: in vivo; conditions: cabbage leaves immersed, active substance concentration 0.1 % by weight
Procedure: as §1, §2
For the preparation of an expedient formulation of active substance, 1 part by weight of active substance is mixed with the stated amounts of solvent and emulsifier, and the concentrate is diluted to the desired concentration with water.
Cabbage leaves (Brassica oleracea) are treated by immersion in the formulation of active substance of the desired concentration and infested with caterpillars of the diamondback moth (Plutella xylostella) as long as the leaves are still moist.
After the desired time, the kill in % is determined. 100% means that all caterpillars were killed; 0% means that no caterpillars were killed.

| Compound | Kill in % after 7 d [1] [%] | MIC (Penicillium brevicaule) [µg/mL] | MIC (Chaetomium globosum) [µg/mL] | MIC (Aspergillus niger) [µg/mL] | Kill in % after 7 d [2] [%] |
| --- | --- | --- | --- | --- | --- |
| Cc1ccc([N+](=O)[O-])cc1S(=O)(=O)n1c(C#N)nc2cc3c(cc21)OC(F)(F)C(F)(F)O3 [drawing 68] | 100 | – | – | – | – |
| Cc1ccc([N+](=O)[O-])cc1S(=O)(=O)n1c(C#N)nc2cc3c(cc21)OC(F)(F)C(F)(F)O3 [Example 5] | – | 100 (≈ 212 µM) | 100 (≈ 212 µM) | 200 (≈ 423 µM) | – |
| Cc1ccc(S(=O)(=O)n2c(C#N)nc3cc4c(cc32)OC(F)(F)C(F)(F)O4)cc1[N+](=O)[O-] [drawing 69] | – | – | – | – | 100 |
| Cc1ccc(S(=O)(=O)n2c(C#N)nc3cc4c(cc32)OC(F)(F)C(F)(F)O4)cc1[N+](=O)[O-] [drawing 67] | 100 | – | – | – | – |
| Cc1ccc([N+](=O)[O-])cc1S(=O)(=O)n1c(C#N)nc2cc3c(cc21)OC(F)(F)C(F)(F)O3 [drawing 70] | – | – | – | – | 100 |
| Cc1ccc(S(=O)(=O)n2c(C#N)nc3cc4c(cc32)OC(F)(F)C(F)(F)O4)cc1[N+](=O)[O-] [Example 2] | – | 100 (≈ 212 µM) | 100 (≈ 212 µM) | 200 (≈ 423 µM) | – |
